Each structure is given as a SMILES string.

Assay [1] deals with PD-L1 (Homo sapiens (Human), UniProt Q9NZQ7). Put plainly: PD-L1 whole blood internalization assay. It is filed as cell-based. To be noted: 1 ng/ml human interferon γ, PD-L1 expression on CD14+ cells, read-out: Whole Blood (24 HR) IC50. The protocol:
Example D. PD-L1 Whole Blood Internalization Assay
To determine PD-L1 internalization in human whole blood, normal human blood (Biological Specialty Corp, Colmar. Pa.) was incubated in the presence or absence of a concentration range of test compounds and 1 ng/ml human interferon γ (R&D Systems Inc. Minn. […] Blood was then stained with PD-L1 (MIH1, eBioscience; or BD Biosciences San Jose, Calif.), CD14 (Life Technologies, Carlsbad, Calif.) for 30 minutes in the dark at room temperature. Whole Blood/red cells were lysed/fixed (lysis buffer BD Biosciences) for 5 minutes at 37° C. in the dark and then centrifuged at 1600 RPM for 5 minutes. Cells were resuspended in Stain Buffer (BD Bioscience, San Jose, Calif.) and transferred into 96 well round bottom plates (Corning). Cells were gated on CD14+(BD Biosciences) and PD-L1 expression determined by mean fluorescence intensity (MFI) (BD LSRFortessa™ X-20). IC50 determination was performed by fitting the curve of compound percent inhibition versus the log of the compound concentration using the GraphPad Prism 7.0 software.

Assay [2] has as its system PD-L1 aAPC/CHO-K1 cells and Jurkat-PD-1-NFAT effector cells. Put plainly: Nuclear factor of activated T-cells (NFAT) assay. It is filed as cell-based. To be noted: Cricetulus griseus; PD-L1 aAPC/CHO-K1 cells with Jurkat-PD-1-NFAT effector cells, 24 hours. The protocol:
Example C. Nuclear Factor of Activated T-Cells (NFAT) Assay
PD-L1 aAPC/CHO-Klcells (Promega) were maintained in F-12 medium with addition of 10% FBS, 200 μg/ml Hygromycin B, 250 μg/ml Geneticin (G418). Jurkat-PD-1-NFAT effector cells (Promega) were cultured in RPMI 1640 medium supplemented with 10% FBS, 100 μg/ml Hygromycin B, 500 μg/ml G418. The culture media of PD-L1 aAPC/CHO-K1 cells were first replaced with assay medium (RPMI1640 medium with 1% FBS). The PD-L1 aAPC/CHO-K1 cells were then added in a white 384-well white clear bottom assay plate (CELLCOAT® Tissue Culture Plates, Greiner Bio-One) at 8000 per well in 10 μL assay medium. Test compounds were prepared by serial dilution in DMSO and 0.8 μL test compounds in DMSO were first transferred to the 384 REMP plate well (Thermofisher) by PlateMate Plus (Thermofisher) followed with addition of 50 μL plating medium. 5 μL compounds in the assay medium were transferred to the cells with 0.4% DMSO in the final assay at 2 μM. After removing the culture media, 10,000 Jurkat-PD-1-NFAT effector cells in 5 μL assay medium was dispensed into each well. The assay plate was incubated at 37° C., 5% CO2 for 24 hours. After the assay plate was equilibrated to room temp for 15 minutes, 20 µL/well of Bio-Glo™ reagent (Promega) were added. After 8 minutes incubation at room temperature, luminescence was read at with Pherastar microplate reader (BMG Labtech). The fold of induction (FOI) was calculated based on the ratio of luminescence normalized to the DMSO wells within each assay plate. The maximum percentage of induction was reported based on the ratio between the highest FOI of each compound and the maximum FOI of control compound within each assay plate. Wells with DMSO were served as the negative controls and wells containing control compound with the highest FOI were used as positive controls. EC50 determination was performed by fitting the curve of percent control activity versus the log of the compound concentration using the GraphPad Prism 6.0 software.

The subject of assay [3] is U2OS/PD-L1 cells and Jurkat-PD-1-SHP cells. Put plainly: Src homology region 2 domain-containing phosphatase (SHP) assay. It is filed as cell-based. To be noted: Homo sapiens; U2OS/PD-L1 cells with Jurkat-PD-1-SHP cells, 2 hours. The method, then:
Example B. Src Homology Region 2 Domain-Containing Phosphatase (SHP) Assay
U2OS/PD-L1 cells (DiscoveRx Corporation) were maintained in McCoy's 5A medium with addition of 10% FBS, 0.25 μg/ml Puromycin. After removing the culture media, the cell medium was replaced with assay medium (RPMI1640 medium with 1% FBS). The U2OS/PD-L1 cells were then added in 384-well black clear bottom assay plate (CELLCOAT® Tissue Culture Plates, Greiner Bio-One) at 5000 cells per well in 20 μL assay medium. Test compounds were prepared by serial dilution in DMSO and 125 nL compound were first transferred to the 384 REMP plate well (Thermofisher) by ECHO liquid handler (Labcyte) followed with addition of 27.5 μL assay medium. 5 μL/well compounds in the assay medium were transferred to the cell plate with 0.05% DMSO in the final assay at 0.5 μM. Jurkat-PD-1-SHP cells (DiscoveRx Corporation) were cultured in RPMI1640 medium supplemented with 10% FBS, 250 μg/ml Hygromycin B, 500 μg/ml G418. After the replacement of culture media with assay medium, 5,000 Jurkat-PD-1-SHP cells in 20 μL were dispensed into each well. The assay plate was incubated at 37° C., 5% CO2 for 2 hours before 2.5 μL PathHunter reagent 1 (DiscoveRx Corporation) were added to each well. The assay plate was shaken for 1 min at 350 rpm in the dark followed with addition of 10 μL PathHunter reagent 2 (DiscoveRx Corporation). Chemiluminescent signal was recorded with TopCount reader (Perkin Elmer) after incubation at room temperature for 1 hour. Wells with DMSO were served as the positive controls and wells containing no cells were used as negative controls. IC50 determination was performed by fitting the curve of percentage of control activity versus the log of the compound concentration using the GraphPad Prism 6.0 software.

Assay [4] deals with PD-1/PD-L1 (Homo sapiens (Human), UniProt Q9NZQ7). In words: Homogeneous Time-Resolved Fluorescence (HTRF) PD-1/PD-L1 binding assay. To be noted: recombinant human PD-1 and PD-L1, 25° C., pH 7.4. The protocol:
Example A. Homogeneous Time-Resolved Fluorescence (HTRF) PD-1/PD-L1 Binding Assay
The assays were conducted in a standard black 384-well polystyrene plate with a final volume of 20 μL. Inhibitors were first serially diluted in DMSO and then added to the plate wells before the addition of other reaction components. The final concentration of DMSO in the assay was 1%. The assays were carried out at 25° C. in the PBS buffer (pH 7.4) with 0.05% Tween-20 and 0.1% BSA. Recombinant human PD-L1 protein (19-238) with a His-tag at the C-terminus was purchased from AcroBiosystems (PD1-H5229). Recombinant human PD-1 protein (25-167) with Fc tag at the C-terminus was also purchased from AcroBiosystems (PD1-H5257). PD-L1 and PD-1 proteins were diluted in the assay buffer and 10 μL was added to the plate well. Plates were centrifuged and proteins were preincubated with inhibitors for 40 minutes. The incubation was followed by the addition of 10 μL of HTRF detection buffer supplemented with Europium cryptate-labeled anti-human IgG (PerkinElmer-AD0212) specific for Fc and anti-His antibody conjugated to SureLight®-Allophycocyanin (APC, PerkinElmer-AD0059H). After centrifugation, the plate was incubated at 25° C. for 60 min. before reading on a PHERAstar FS plate reader (665 nm/620 nm ratio). Final concentrations in the assay were—3 nM PD1,10 nM PD-L1, 1 nM europium anti-human IgG and 20 nM anti-His-Allophycocyanin. IC50 determination was performed by fitting the curve of percent control activity versus the log of the inhibitor concentration using the GraphPad Prism 5.0 software.
For orientation: In TR-FRET formats the signal depends on donor and acceptor labels being close together.

Chain of PD-1/PD-L1 (Q9NZQ7 19-238): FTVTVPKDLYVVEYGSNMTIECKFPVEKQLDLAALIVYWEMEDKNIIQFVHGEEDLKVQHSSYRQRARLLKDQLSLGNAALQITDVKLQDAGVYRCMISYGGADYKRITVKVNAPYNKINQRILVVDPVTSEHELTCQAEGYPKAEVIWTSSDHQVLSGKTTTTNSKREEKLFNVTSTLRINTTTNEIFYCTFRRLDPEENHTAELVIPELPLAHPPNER
Chain of PD-L1 (Q9NZQ7 19-290): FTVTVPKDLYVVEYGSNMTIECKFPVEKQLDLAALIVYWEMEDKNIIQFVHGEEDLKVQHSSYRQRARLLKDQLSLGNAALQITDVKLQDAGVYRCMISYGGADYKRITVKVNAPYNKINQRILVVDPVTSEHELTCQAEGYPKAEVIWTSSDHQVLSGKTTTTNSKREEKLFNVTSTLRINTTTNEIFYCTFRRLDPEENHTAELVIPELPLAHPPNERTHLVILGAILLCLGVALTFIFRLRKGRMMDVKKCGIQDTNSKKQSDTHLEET

Consider `Cc1nc(Nc2cccc(-c3cccc(-c4nc5cc(CN6CCC(C(=O)O)CC6)cc(C#N)c5o4)c3C)c2C)c2ncc(CN3CC[C@@H](O)C3)cc2n1` [Example 1, (R)-1-((7-cyano-2-(3′-(7-((3-hydroxypyrrolidin-1-yl)methyl)-2-methylpyrido[3,2-d]pyrimidin-4-ylamino)-2,2′-dimethylbiphenyl-3-yl)benzo[d]oxazol-5-yl)methyl)piperidine-4-carboxylic Acid], for which the IC50 in assay [1] is 10 to 100 nM; in assay [3] it was no more than 10 nM; in assay [4], no more than 10 nM. The EC50 in assay [2] lay within 10 to 100 nM.

For `Cc1nc(Nc2cccc(-c3cccc(-c4nc5cc(CN6CCC(C(=O)O)CC6)cc(C#N)c5o4)c3C)c2C)c2ncc(CN3CC[C@@](C)(O)C3)cc2n1` [Example 2, (R)-1-((7-cyano-2-(3′-(7-((3-hydroxy-3-methylpyrrolidin-1-yl)methyl)-2-methylpyrido[3,2-d]pyrimidin-4-ylamino)-2,2′-dimethylbiphenyl-3-yl)benzo[d]oxazol-5-yl)methyl)piperidine-4-carboxylic Acid], the 50% inhibitory concentration (IC50) in assay [1] was 10 to 100 nM; in assay [3] it was no more than 10 nM; in assay [4], no more than 10 nM. The EC50 in assay [2] fell in the range of 10 to 100 nM.

Compound `Cc1nc(Nc2cccc(-c3cccc(-c4nc5cc(CN6CC[C@@H](C(=O)O)C6)cc(C#N)c5o4)c3C)c2C)c2ncc(CN[C@@H](C)CO)cc2n1` [Example 9, (R)-1-((7-cyano-2-(3′-(7-(((S)-1-hydroxypropan-2-ylamino)methyl)-2-methylpyrido[3,2-d]pyrimidin-4-ylamino)-2,2′-dimethylbiphenyl-3-yl)benzo[d]oxazol-5-yl)methyl)pyrrolidine-3-carboxylic Acid] registered an EC50 in assay [2] of 10 to 100 nM. Moreover, the IC50 in assay [3] and in assay [4] was no more than 10 nM in each case.

In turn, `Cc1nc(Nc2cccc(-c3cccc(-c4nc5cc(CN6CC[C@@H](C(=O)O)C6)cc(C#N)c5o4)c3C)c2C)c2ncc(CNC[C@H](C)O)cc2n1` [Example 10, (R)-1-((7-cyano-2-(3′-(7-(((S)-2-hydroxypropylamino)methyl)-2-methylpyrido[3,2-d]pyrimidin-4-ylamino)-2,2′-dimethylbiphenyl-3-yl)benzo[d]oxazol-5-yl)methyl)pyrrolidine-3-carboxylic Acid] showed an EC50 in assay [2] of 10 to 100 nM. The IC50 in assay [3] and in assay [4] was no more than 10 nM each time.

As for `Cc1nc(Nc2cccc(-c3cccc(-c4nc5cc(CN6CC[C@@](C)(C(=O)O)C6)cc(C#N)c5o4)c3C)c2C)c2ncc(CNC[C@H](C)O)cc2n1` [Example 15, (R)-1-((7-cyano-2-(3′-(7-(((S)-2-hydroxypropylamino)methyl)-2-methylpyrido[3,2-d]pyrimidin-4-ylamino)-2,2′-dimethylbiphenyl-3-yl)benzo[d]oxazol-5-yl)methyl)-3-methylpyrrolidine-3-carboxylic Acid], the concentration giving a half-maximal response (EC50) in assay [2] lay in the range of 10 to 100 nM. For the same compound, the half-maximal inhibitory concentration (IC50) in assay [3] and in assay [4] was no more than 10 nM each time.

With `Cc1c(Nc2nc(C(F)(F)F)nc3cc(CN4CC[C@@H](O)C4)cnc23)cccc1-c1cccc(-c2nc3cc(CN4CCC(C(=O)O)CC4)cc(C#N)c3o2)c1C` [Example 19, (R)-1-((7-cyano-2-(3′-(7-((3-hydroxypyrrolidin-1-yl)methyl)-2-(trifluoromethyl)pyrido[3,2-d]pyrimidin-4-ylamino)-2,2′-dimethylbiphenyl-3-yl)benzo[d]oxazol-5-yl)methyl)piperidine-4-carboxylic Acid], the results for the IC50 in assay [1] and in assay [3] were 10 to 100 nM and no more than 10 nM, respectively. In assay [2], this compound had a 50% effective concentration (EC50) of 10 to 100 nM.

`Cc1c(Nc2nc(C(F)(F)F)nc3cc(CN4CC[C@@H](O)C4)cnc23)cccc1-c1cccc(-c2nc3cc(CN4CC[C@@H](C(=O)O)C4)cc(C#N)c3o2)c1C` [Example 20, (R)-1-((7-cyano-2-(3′-(7-(((R)-3-hydroxypyrrolidin-1-yl)methyl)-2-(trifluoromethyl)pyrido[3,2-d]pyrimidin-4-ylamino)-2,2′-dimethylbiphenyl-3-yl)benzo[d]oxazol-5-yl)methyl)pyrrolidine-3-carboxylic Acid]: the figures for the concentration for half-maximal inhibition (IC50) in assay [1] and in assay [3] were 10 to 100 nM and no more than 10 nM, respectively. In assay [2], this compound displayed a 50% effective concentration (EC50) of 10 to 100 nM.

`Cc1c(Nc2nc(C(F)(F)F)nc3cc(CN4CC[C@@H](O)C4)cnc23)cccc1-c1cccc(-c2nc3cc(CN4CC[C@@](C)(C(=O)O)C4)cc(C#N)c3o2)c1C` [Example 21, (R)-1-((7-cyano-2-(3′-(7-(((R)-3-hydroxypyrrolidin-1-yl)methyl)-2-(trifluoromethyl)pyrido[3,2-d]pyrimidin-4-ylamino)-2,2′-dimethylbiphenyl-3-yl)benzo[d]oxazol-5-yl)methyl)-3-methylpyrrolidine-3-carboxylic Acid]: the half-maximal inhibitory concentration (IC50) in assay [1] was 10 to 100 nM; in assay [3], no more than 10 nM. Moreover, in assay [2], the 50% effective concentration (EC50) fell in the range of 10 to 100 nM.

As to `Cc1cc2cc(CN3CC[C@@H](O)C3)cnc2c(Nc2cccc(-c3cccc(-c4nc5cc(CN6CC[C@@H](C(=O)O)C6)cc(C#N)c5o4)c3C)c2C)n1` [Example 33, (R)-1-((7-cyano-2-(3′-(3-(((R)-3-hydroxypyrrolidin-1-yl)methyl)-6-methyl-1,7-naphthyridin-8-ylamino)-2,2′-dimethylbiphenyl-3-yl)benzo[d]oxazol-5-yl)methyl)pyrrolidine-3-carboxylic Acid], the 50% inhibitory concentration (IC50) in assay [1] was 10 to 100 nM; in assay [3] it was no more than 10 nM. The compound also returned an EC50 in assay [2] of no more than 10 nM.

The term IC50 denotes the midpoint of a concentration-inhibition curve. As a reminder, the EC50 is the concentration needed to bring the measured effect to its halfway point. A low value points to an effect from little substance.

The record behind these values is patent US10669271B2, “Heterocyclic compounds as immunomodulators” (Incyte Corporation, priority 2018, dated 2020).
